Laboratory results from patent US20240287138A1, “CYCLIC PEPTIDES FOR INHIBITING TNF RECEPTOR 1 ACTIVITY” (Merck Sharp & Dohme LLC, priority 2023, published 2024).
Numbered stars: 1 amine (or outer) side, 2 acyl side, 3 side chain; on linkers, the order of the positions; unused ones are H or OH. Bridge positions count the residues as written; N and C are the ends. Square brackets hold non-standard residues; d marks the D form. Peptide text beside a SMILES is read from it. * marks the point of attachment. Trp(βS-Me,7-OMe) = COc1cccc2c([C@H](C)[C@H](N)C(=O)O)c[nH]c12; X24 = O=C(O)c1ccc([C@@H](O)[C@H](N[*:1])C(=O)[*:2])cc1; X28 = NC(=O)c1ccc([C@H](O)[C@H](N[*:1])C(=O)[*:2])cc1; Trp(7-CN) = N#Cc1cccc2c(C[C@H](N)C(=O)O)c[nH]c12; Trp(7-Cl) = N[C@@H](Cc1c[nH]c2c(Cl)cccc12)C(=O)O; Phe(4-CONH2) = NC(=O)c1ccc(C[C@H](N)C(=O)O)cc1; Phe(4-COOH) = N[C@@H](Cc1ccc(C(=O)O)cc1)C(=O)O; 4Pal(3S-Me) = C[C@@H](c1ccncc1)[C@H](N)C(=O)O; Trp(7-aza) = N[C@@H](Cc1c[nH]c2ncccc12)C(=O)O; Phe(4-CH2NH2) = NCc1ccc(C[C@H](N)C(=O)O)cc1; dPro(trans-4-F) = O=C(O)[C@H]1C[C@H](F)CN1; Pip(5R-OH) = O=C(O)[C@@H]1CC[C@@H](O)CN1; αMeW = C[C@](N)(Cc1c[nH]c2ccccc12)C(=O)O; X1 = O=C([C@@H]1CC[C@H](N[*:1])C1)[*:2]; Pip(4-aza) = O=C(O)[C@@H]1CNCCN1; 4Pal = N[C@@H](Cc1ccncc1)C(=O)O; NMeE = CN[C@@H](CCC(=O)O)C(=O)O; dHyp = O=C(O)[C@H]1C[C@H](O)CN1; Cit = NC(=O)NCCC[C@H](N)C(=O)O; Ahp(2) = CCCCC[C@H](N)C(=O)O; αMeS = C[C@](N)(CO)C(=O)O; Carboxymethyl = O=C(O)C*; Nle = CCCC[C@H](N)C(=O)O; Sar = CNCC(=O)O

Molecular target: T1, TNFα-induced NF-κB signal transduction pathway (TNFR1 signaling) in THP-1 cells (Homo sapiens, UniProt P19438)
T1 sequence (P19438 30-455): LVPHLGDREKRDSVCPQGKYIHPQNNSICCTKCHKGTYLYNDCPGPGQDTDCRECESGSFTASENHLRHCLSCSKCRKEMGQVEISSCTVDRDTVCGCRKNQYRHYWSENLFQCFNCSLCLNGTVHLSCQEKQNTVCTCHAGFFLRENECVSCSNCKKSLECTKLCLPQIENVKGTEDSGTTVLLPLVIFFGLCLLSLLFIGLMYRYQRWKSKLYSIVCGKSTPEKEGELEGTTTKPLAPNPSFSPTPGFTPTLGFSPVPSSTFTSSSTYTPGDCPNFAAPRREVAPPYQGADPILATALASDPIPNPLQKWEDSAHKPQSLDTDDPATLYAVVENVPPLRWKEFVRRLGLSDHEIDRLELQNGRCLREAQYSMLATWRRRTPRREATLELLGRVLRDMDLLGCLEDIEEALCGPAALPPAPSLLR
Test: THP-1 Lucia NF-κB reporter cell assay, inhibition of TNFα-induced NF-κB signaling
Format: cell-based
Conditions: THP-1 NF-κB Lucia reporter cells, 10 ng/mL TNFα, 16-18 h, secreted luciferase; read-out: THP-1 IC50
In short: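 IC50 from a 4-parameter logistic fit of secreted luciferase luminescence (QUANTI-Luc), normalised to min/max controls. Reporter THP-1 cells were exposed to peptides for 1 h at 37 °C before 10 ng/mL TNFα (final) was added overnight (16–18 h).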

Work on `CCCC[C@@H]1NC(=O)[C@@H]2CC[C@@H](C2)NC(=O)[C@H]([C@@H](C)c2c[nH]c3c(OC)cccc23)NC(=O)CN(C)C(=O)[C@H]([C@H](O)c2ccc(C(=O)O)cc2)NC(=O)[C@H]([C@@H](O)c2ccc(C(N)=O)cc2)NC(=O)[C@](C)(CO)NC(=O)[C@H](Cc2c[nH]c3c(C#N)cccc23)NC(=O)[C@H](Cc2ccncc2)NC(=O)[C@H](CC(N)=O)NC(=O)[C@H]2C[C@H](O)CN2C(=O)[C@H](Cc2c[nH]c3ccccc23)NC(=O)[C@@H]2CC[C@@H](O)CN2C(=O)[C@H](Cc2ccncc2)NC1=O` [SEQ ID NO. 155] (cyclo([4Pal][Trp(7-CN)][αMeS][X28][X24][Sar][Trp(βS-Me,7-OMe)][X1][Nle][4Pal][Pip(5R-OH)]W[dHyp]N)) yielded an IC50 of 0.9 nM.

`CCCCC[C@@H]1NC(=O)[C@@H]2CC[C@@H](C2)NC(=O)[C@H]([C@@H](C)c2c[nH]c3c(OC)cccc23)NC(=O)CN(C)C(=O)[C@H](Cc2ccc(C(N)=O)cc2)NC(=O)[C@H](Cc2ccc(C(N)=O)cc2)NC(=O)[C@](C)(CO)NC(=O)[C@H](Cc2c[nH]c3c(C#N)cccc23)NC(=O)[C@H](Cc2ccc(C(=O)O)cc2)NC(=O)[C@H](CC(N)=O)NC(=O)[C@H]2C[C@H](O)CN2C(=O)[C@H](Cc2c[nH]c3ccccc23)NC(=O)[C@H](CCCNC(N)=O)NC(=O)[C@H]([C@@H](C)c2ccncc2)NC1=O` [SEQ ID NO. 110] (cyclo([Ahp(2)][4Pal(3S-Me)][Cit]W[dHyp]N[Phe(4-COOH)][Trp(7-CN)][αMeS][Phe(4-CONH2)][Phe(4-CONH2)][Sar][Trp(βS-Me,7-OMe)][X1])) gave an IC50 of 1.2 nM.

For `CCCC[C@@H]1NC(=O)[C@@H]2CC[C@@H](C2)NC(=O)[C@H]([C@@H](C)c2c[nH]c3c(OC)cccc23)NC(=O)CN(C)C(=O)[C@H](Cc2ccc(O)cc2)NC(=O)[C@H](Cc2ccc(C(N)=O)cc2)NC(=O)[C@](C)(CO)NC(=O)[C@H](Cc2c[nH]c3c(Cl)cccc23)NC(=O)[C@H](Cc2ccncc2)NC(=O)[C@H](CC(N)=O)NC(=O)[C@H](CCC(=O)O)N(C)C(=O)[C@H](Cc2c[nH]c3ccccc23)NC(=O)[C@@H]2CC[C@@H](O)CN2C(=O)[C@H](Cc2ccncc2)NC1=O` [SEQ ID NO. 163] (cyclo([4Pal][Trp(7-Cl)][αMeS][Phe(4-CONH2)]Y[Sar][Trp(βS-Me,7-OMe)][X1][Nle][4Pal][Pip(5R-OH)]W[NMeE]N)), the IC50 was 0.7 nM.

`CCCC[C@@H]1NC(=O)[C@@H]2CC[C@@H](C2)NC(=O)[C@H]([C@@H](C)c2c[nH]c3c(OC)cccc23)NC(=O)CN(C)C(=O)[C@H](Cc2ccc(C(=O)O)cc2)NC(=O)[C@H](Cc2ccc(C(N)=O)cc2)NC(=O)[C@](C)(CO)NC(=O)[C@H](Cc2c[nH]c3c(Cl)cccc23)NC(=O)[C@H](Cc2ccncc2)NC(=O)[C@H](CC(N)=O)NC(=O)[C@H]2C[C@H](F)CN2C(=O)[C@H](Cc2c[nH]c3ccccc23)NC(=O)[C@@H]2CC[C@@H](O)CN2C(=O)[C@H](Cc2ccncc2)NC1=O` [SEQ ID NO. 101] (cyclo([4Pal][Trp(7-Cl)][αMeS][Phe(4-CONH2)][Phe(4-COOH)][Sar][Trp(βS-Me,7-OMe)][X1][Nle][4Pal][Pip(5R-OH)]W[dPro(trans-4-F)]N)) gave an IC50 of 0.9 nM.

With `CCCCC[C@@H]1NC(=O)[C@@H]2CC[C@@H](C2)NC(=O)[C@H]([C@@H](C)c2c[nH]c3c(OC)cccc23)NC(=O)CN(C)C(=O)[C@H](Cc2ccc(C(N)=O)cc2)NC(=O)[C@H](Cc2ccc(C(N)=O)cc2)NC(=O)[C@](C)(CO)NC(=O)[C@H](Cc2c[nH]c3c(C#N)cccc23)NC(=O)[C@H](Cc2ccc(C(=O)O)cc2)NC(=O)[C@H](CC(N)=O)NC(=O)[C@H]2C[C@H](OCC(=O)O)CN2C(=O)[C@H](Cc2c[nH]c3ccccc23)NC(=O)[C@@H]2CNCCN2C(=O)[C@H](Cc2ccncc2)NC1=O` [SEQ ID NO. 140] (cyclo([4Pal][Pip(4-aza)]W[dHyp](Carboxymethyl)N[Phe(4-COOH)][Trp(7-CN)][αMeS][Phe(4-CONH2)][Phe(4-CONH2)][Sar][Trp(βS-Me,7-OMe)][X1][Ahp(2)])) the IC50 was 0.5 nM.

With `CCCC[C@@H]1NC(=O)CSC[C@@H](C(N)=O)NC(=O)[C@](C)(Cc2c[nH]c3ccccc23)NC(=O)CN(C)C(=O)[C@H](Cc2ccc(O)cc2)NC(=O)[C@H](Cc2ccc(OCC(=O)O)cc2)NC(=O)[C@](C)(CO)NC(=O)[C@H](Cc2c[nH]c3c(Cl)cccc23)NC(=O)[C@H](Cc2ccncc2)NC(=O)[C@H](CC(N)=O)NC(=O)[C@H](CCC(=O)O)N(C)C(=O)[C@H](Cc2c[nH]c3ncccc23)NC(=O)[C@H](CO)NC(=O)[C@H](Cc2ccc(CN)cc2)NC1=O` [SEQ ID NO. 283] ({CH2CO}-[Nle][Phe(4-CH2NH2)]S[Trp(7-aza)][NMeE]N[4Pal][Trp(7-Cl)][αMeS]Y(Carboxymethyl)Y[Sar][αMeW]C-NH2; thioether N-14) the IC50 was 6.4 nM.
